# Measured values as given in article PMC5840343, “Interplay between conformational selection and zymogen activation” (Scientific Reports, 2018).
# Several values for one entry are separate records, joined by “and”; a condition that tells them apart may be missing. Equal entries are not always repeated. Entries after “also recorded” stand apart in the source; their conditions may differ.
# Assays:
# prethrombin-1 [1] = target: T1, prethrombin-1 (Homo sapiens, UniProt P00734, S568A); assay: Stopped-flow rapid kinetics of FPR binding to the active site
# T1 construct: generates the intermediate prethrombin-1 (Pre1) composed of kringle-2 and the protease domain; made in house
# Procedure: (§1) Rapid kinetic experiments were conducted on an Applied Photophysics SX20 stopped-flow spectrometer under conditions of excess ligand. The dead time of the mixing cell for this instrument is 0.5–1 ms. Final concentrations of 50–75 nM of thrombin and meizothrombin, or 200–400 nM of prothrombin, prethrombin-1 and prethrombin-2 were used in a buffer containing 400 mM ChCl, 50 mM Tris, 0.1% PEG8000, pH 8.0, at 15 °C. The solution containing the protein was mixed 1:1 with 60 µL solutions of FPR in the same buffer. FPR is the […] analog of the irreversible active site inhibitor H-D-Phe-Pro-Arg-CH2Cl, for which detailed structural information exists on its interaction with the active site of thrombin[47],[61]. Rapid kinetics of FPR binding were studied using an excitation of 295 nm and a cutoff filter at 320 nm. Baselines were measured by mixing the protein into buffer in the absence of ligand. Each kinetic trace for a given ligand concentration was taken as the average of a minimum of six determinations. Traces were fit to single or double exponentials based on the analysis of residuals using software supplied by Applied Photophysics.
# (§2) A detailed discussion of ligand binding mechanisms established by rapid kinetics is given elsewhere[25]–[27]. and is briefly summarized below for the sake of completeness. The relevant kinetic scheme for ligand binding to the active site of a trypsin-like protease or zymogen is1 E^∗k12←⟶k21Ekon[L]←⟶koffE:L E* and E depict the partitioning of the ensemble of pre-existing conformations between those with the active site accessible (E) or inaccessible (E*) to ligand binding. The ligand, L, selectively binds to E with a second order rate of association kon. Under conditions where L is in large excess over the macromolecule, the reaction scheme in eq. 1 gives two independent rates of relaxation to equilibrium according to the expression2 2α1,2=k12+k21+kon[L]+koff±(kon[L]+koff−k12−k21)^2+4k21kon[L]
# (§3) The fast relaxation, α1, always increases and eventually grows linearly with [L]. Depending on the sign of the expression koff−k12 , the value of the slow relaxation α2 hyperbolically decreases ( koff>k12 ) or increases ( koff<k12 ) with [L], and remains constant when koff=k12 [25]–[27]. The fast relaxation that eventually grows linearly with [L] reflects the binding event. The slow relaxation monitors the conformational transition associated with binding.
# (§4) Resolution of all four independent rate constants in the reaction scheme in eq. 1 requires measurements of both relaxations. […] 2 can be resolved unequivocally. When α2 decreases hyperbolically with [L], the lower limit in the plot, α2(0) , measures the value of koff or the sum k12+k21 , whichever is smaller. The upper limit α2(∞) measures the rate for the E* → E transition k12. […] If only α2 is accessible to experimental measurements, estimation of the E*:E ratio requires additional information from the apparent equilibrium dissociation constant3 Kd,app=koff/kon(1+k21/k12)=Kd(1+k21/k12)
# (§5) defined in terms of the intrinsic equilibrium dissociation constant, Kd, and the E*:E ratio k21/k12. Direct and independent determination of Kd,app can be obtained by fluorescence titrations under the same experimental conditions used for stopped-flow measurements. The definition of Kd,app in eq. 3 leads to three useful expressions, i.e.,4 kon≥α22(0)/α2(∞)Kd,app when α2 decreases hyperbolically with [L] as in the case of prothrombin (Fig. 3A),5 kon=α2(0)[α2(∞)+k21]/α2(∞)Kd,app=α2(0)/Kd,app+α2(0)/α2(∞)Kd,appk21 when α2 increases hyperbolically with [L] as in the case of prethrombin-2 (Fig. 3A), and6 kon=α2(0)+k21/Kd,app=α2(0)/Kd,app+1/Kd,appk21 when α2 is independent of [L] as in the case of prethrombin-1 (Fig. 3A). The expression in eq. 4 yields a direct estimate of the lower limit of kon from which the value of k21 and the E*:E ratio can be arrived at with the help of eq. 3 (Table 1). […]
# prethrombin-2 [2] = target: T2, prethrombin-2 (Homo sapiens, UniProt P00734, S568A); assay: as above
# T2 construct: the protease domain (T272-E579); made in house
# Procedure: as §1, §2, §3, §4, §5
# prothrombin [3] = target: T3, prothrombin (Homo sapiens, UniProt P00734, S568A); assay: as above
# T3 construct: Gla-domain (A1-A46), kringle-1 (C65-C143), kringle-2 (C170-C248) and the protease domain (T272-E579); made in house
# Procedure: as §1, §2, §3, §4, §5
# meizothrombin [4] = target: T4, meizothrombin (Homo sapiens, UniProt P00734, S568A); assay: as above
# T4 construct: Cleavage at R320 retains the modular structure of prothrombin and generates the active intermediate meizothrombin; Cleavage at R320 generates the active intermediate meizothrombin that retains the modular organization of prothrombin; made in house
# Procedure: as §1, §2, §3, §4
# thrombin [5] = target: T5, thrombin (Homo sapiens, UniProt P00734, S568A); assay: as above
# T5 construct: the protease domain composed of the A and B chains; made in house
# Procedure: as §1, §2, §3, §4
# meizothrombin [6] = target: T4, meizothrombin; assay: Equilibrium intrinsic fluorescence titration of FPR binding
# Excerpt: (§6) defined in terms of the intrinsic equilibrium dissociation constant, Kd, and the E*:E ratio k21/k12. Direct and independent determination of Kd,app can be obtained by fluorescence titrations under the same experimental conditions used for stopped-flow measurements. The definition of Kd,app in eq. 3 leads to three useful expressions, i.e.,4 kon≥α22(0)/α2(∞)Kd,app when α2 decreases hyperbolically with [L] as in the case of prothrombin (Fig. 3A),5 kon=α2(0)[α2(∞)+k21]/α2(∞)Kd,app=α2(0)/Kd,app+α2(0)/α2(∞)Kd,appk21 when α2 increases hyperbolically with [L] as in the case of prethrombin-2 (Fig. 3A), and6 kon=α2(0)+k21/Kd,app=α2(0)/Kd,app+1/Kd,appk21 when α2 is independent of [L] as in the case of prethrombin-1 (Fig. 3A). The expression in eq. 4 yields a direct estimate of the lower limit of kon from which the value of k21 and the E*:E ratio can be arrived at with the help of eq. 3 (Table 1). The expressions in eqs 5 and 6, on the other hand, require assumptions to be made on the value of kon to arrive at the value of k21. In both cases, a lower limit for kon is estimated as kon≥α2(0)/Kd,app .
# prethrombin-1 [7] = target: T1, prethrombin-1; assay: as above; conditions: pH 8.0, 15 °C, read-out: Kd,app (direct fluorescence titration)
# Excerpt: as §6
# prethrombin-2 [8] = target: T2, prethrombin-2; assay: as above; conditions: pH 8.0, 15 °C, read-out: Kd,app (direct fluorescence titration)
# Excerpt: as §6
# prothrombin [9] = target: T3, prothrombin; assay: as above; conditions: 400 mM ChCl, 50 mM Tris, 0.1% PEG8000, pH 8.0, 15 °C, read-out: Kd,app (direct fluorescence titration)
# Excerpt: as §6
# thrombin [10] = target: T5, thrombin; assay: as above; conditions: for Kd: thrombin
# Excerpt: as §6
# prethrombin-2 [11] = target: prethrombin-2 (Homo sapiens, UniProt P00734); assay: Limited proteolysis by subtilisin in the absence or presence of argatroban; format: biochemical; conditions: argatroban 500 μM; pH 7.4, 37 °C
# Excerpt: (§7) Aliquots of proteolysis mixtures were quenched whit NuPAGE LDS buffer and analyzed by non-reducing SDS-PAGE (4–12% acrylamide). None of the gels were cropped and originals are available in the Supplementary Information. The relative intensity of intact protein gel bands, after Coomassie staining, was estimated by densitometric analysis and fit to single exponential decay over time.
# prothrombin [12] = target: prothrombin (Homo sapiens, UniProt P00734); assay: as above; format: biochemical; conditions: argatroban 500 μM
# Excerpt: as §7
# thrombin [13] = target: thrombin (Homo sapiens, UniProt P00734); assay: as above; format: biochemical; conditions: argatroban 500 μM; pH 7.4, 37 °C
# Excerpt: as §7
# prothrombin mutant R271W = prothrombin mutant R271W (Homo sapiens, UniProt P00734, R314W); assay: Limited proteolysis by chymotrypsin in the absence or presence of argatroban; format: biochemical
# Excerpt: as §7
# prothrombin mutant R320W = prothrombin mutant R320W (Homo sapiens, UniProt P00734, R363W); assay: as above; format: biochemical
# Excerpt: as §7
# [14] = active site Ser replaced by Ala, E*→E rate, pH 8.0, 15 °C
# [15] = from rate constants, read-out: Kd,app (calculated from eq. 3)
# [16] = pH 8.0, 15 °C, read-out: Kd,app (direct fluorescence titration)
compound,measurement,setting,value
"N=C(N)NCCC[C@H](NC(=O)[C@@H]1CCCN1C(=O)[C@H](N)Cc1ccccc1)C(=O)Nc1ccc([N+](=O)[O-])cc1 [FPR, H-D-Phe-Pro-Arg-p-nitroanilide]",k12,"prethrombin-1 [1]; prethrombin-1, catalytic Ser replaced by Ala, E*→E rate, pH 8.0, 15 °C",42 ± 2 s⁻¹
same,kon,"prethrombin-1 [1]; prethrombin-1, lower estimate from eq. 6, pH 8.0, 15 °C",≥460000 ± 50000 M⁻¹ s⁻¹
same,koff,"prethrombin-1 [1]; prethrombin-1, pH 8.0, 15 °C",42 ± 2 s⁻¹
same,Kd,"prethrombin-1 [1]; prethrombin-1, under the assumption that kon = 1.5 μM^−1 s^−1, read-out: Kd,app (calculated from eq. 3)",≥ 92 µM
same,k12,"prethrombin-2 [2]; prethrombin-2, catalytic Ser replaced by Ala, E*→E rate, pH 8.0, 15 °C",170 ± 10 s⁻¹
same,kon,"prethrombin-2 [2]; prethrombin-2, lower estimate from eq. 5, pH 8.0, 15 °C",≥930000 ± 80000 M⁻¹ s⁻¹
same,koff,"prethrombin-2 [2]; prethrombin-2, pH 8.0, 15 °C",27 ± 2 s⁻¹
same,Kd,"prethrombin-2 [2]; prethrombin-2, under the assumption that kon = 1.5 μM^−1 s^−1, read-out: Kd,app (calculated from eq. 3)",≥ 29 µM
same,k21,"prothrombin [3]; E→E* rate, same buffer, pH 8.0, 15 °C",≥38 ± 3 s⁻¹
same,k12,"prothrombin [3]; catalytic Ser replaced by Ala, E*→E rate, 400 mM ChCl, 50 mM Tris, 0.1% PEG8000, pH 8.0, 15 °C",6.9 ± 0.3 s⁻¹
same,Kd,"prothrombin [3]; from rate constants, pH 8.0, 15 °C, read-out: Kd,app (calculated from eq. 3)",≥ 200 µM
same,koff,"prothrombin [3]; koff ≥ α2(0), pH 8.0, 15 °C",≥45 ± 5 s⁻¹
same,kon,"prothrombin [3]; lower estimate from eq. 4, pH 8.0, 15 °C",≥1.5e+06 ± 100000 M⁻¹ s⁻¹
same,"α2(0), limiting value of the slow relaxation",prothrombin [3]; the smaller between koff or the sum k12 + k21,45 ± 5 s⁻¹
same,k21,"meizothrombin [4]; E→E* rate, pH 8.0, 15 °C",3.4 ± 0.7 s⁻¹
same,k12,meizothrombin [4]; [14],8.8 ± 0.5 s⁻¹
same,Kd,meizothrombin [4]; [15],0.44 ± 0.03 µM
same,koff,"meizothrombin [4]; pH 8.0, 15 °C",0.8 ± 0.1 s⁻¹
same,kon,"meizothrombin [4]; pH 8.0, 15 °C",2.5e+06 ± 300000 M⁻¹ s⁻¹
same,k21,"thrombin [5]; E→E* rate, pH 8.0, 15 °C",3.8 ± 0.8 s⁻¹
same,k12,thrombin [5]; [14],16 ± 1 s⁻¹
same,Kd,thrombin [5]; [15],0.29 ± 0.02 µM
same,koff,"thrombin [5]; pH 8.0, 15 °C",0.6 ± 0.1 s⁻¹
same,kon,"thrombin [5]; pH 8.0, 15 °C",2.6e+06 ± 300000 M⁻¹ s⁻¹
same,Kd,meizothrombin [6]; [16],0.51 ± 0.04 µM
same,Kd,"meizothrombin [6]; read-out: Kd,app from equilibrium measurements",0.51 ± 0.04 µM
same,Kd,prethrombin-1 [7],92 ± 8 µM
same,Kd,prethrombin-2 [8],29 ± 2 µM
same,Kd,prothrombin [9],190 ± 20 µM
same,higher affinity of thrombin compared to prothrombin,"thrombin [10]; ratio of Kd,app, thrombin vs prothrombin",700 fold
same,Kd,thrombin [10]; [16],0.28 ± 0.02 µM
same,Kd,"thrombin [10]; read-out: Kd,app from equilibrium measurements of intrinsic fluorescence titration",0.28 ± 0.02 µM
CC1CNc2c(cccc2S(=O)(=O)N[C@@H](CCCNC(=N)N)C(=O)N2CC[C@@H](C)C[C@@H]2C(=O)O)C1 (some centres unmarked) [argatroban],effect on subtilisin digestion of prethrombin-2,prethrombin-2 [11],much less pronounced than that of prothrombin
same,effect on products of subtilisin proteolysis of prothrombin,prothrombin [12]; non-reducing SDS-PAGE,prevents accumulation of prethrombin-1
same,effect on the rate of proteolytic digestion of prothrombin by subtilisin,"prothrombin [12]; pH 7.4, 37 °C",significantly enhanced
same,enhancement of the rate of prothrombin digestion by subtilisin,"prothrombin [12]; subtilisin 1:1000 (w/w), pH 7.4, 37 °C, densitometry",> 10 fold
same,effect on subtilisin digestion of thrombin,thrombin [13],practically absent; also recorded: no effect
same,kexp of chymotrypsin hydrolysis in the presence of argatroban,"prothrombin mutant R271W; R271W 0.1 mg/ml, argatroban 500 μM, chymotrypsin 1:50 (w/w), pH 7.4, 37 °C",0.027 ± 0.004 min⁻¹
same,enhancement of the rate of chymotrypsin hydrolysis,"prothrombin mutant R271W; R271W, presence vs absence of argatroban",3 fold and > 3 fold
same,kexp of chymotrypsin hydrolysis in the presence of argatroban,"prothrombin mutant R320W; R320W 0.1 mg/ml, argatroban 500 μM, chymotrypsin 1:50 (w/w), pH 7.4, 37 °C",0.035 ± 0.007 min⁻¹
same,enhancement of the rate of chymotrypsin hydrolysis,"prothrombin mutant R320W; R320W, presence vs absence of argatroban",3 fold and > 3 fold
